Experiment [1] addresses T1, Acetylcholinesterase (Homo sapiens, UniProt P22303). Description: Inhibition of human serum BChE using butyrylthiocholine iodide as substrate by spectrophotometric method.
The target in experiment [2] is T1, Acetylcholinesterase.
Description: (§1) Inhibition of human recombinant AChE using acetylthiocholine iodide as substrate by spectrophotometric method
The target of experiment [3] is Acetylcholinesterase (Electrophorus electricus, UniProt O42275).
Description: (§2) Inhibition of electric eel AChE using acetylthiocholine iodide as substrate by spectrophotometric method
Experiment [4] has as its target T1, Acetylcholinesterase. This is another data set of the same source.
Description: as §1
For experiment [5], the target named is Acetylcholinesterase (Electrophorus electricus) (UniProt O42275).
Sequence of Acetylcholinesterase (Electrophorus electricus) (O42275 24-633 limits assumed): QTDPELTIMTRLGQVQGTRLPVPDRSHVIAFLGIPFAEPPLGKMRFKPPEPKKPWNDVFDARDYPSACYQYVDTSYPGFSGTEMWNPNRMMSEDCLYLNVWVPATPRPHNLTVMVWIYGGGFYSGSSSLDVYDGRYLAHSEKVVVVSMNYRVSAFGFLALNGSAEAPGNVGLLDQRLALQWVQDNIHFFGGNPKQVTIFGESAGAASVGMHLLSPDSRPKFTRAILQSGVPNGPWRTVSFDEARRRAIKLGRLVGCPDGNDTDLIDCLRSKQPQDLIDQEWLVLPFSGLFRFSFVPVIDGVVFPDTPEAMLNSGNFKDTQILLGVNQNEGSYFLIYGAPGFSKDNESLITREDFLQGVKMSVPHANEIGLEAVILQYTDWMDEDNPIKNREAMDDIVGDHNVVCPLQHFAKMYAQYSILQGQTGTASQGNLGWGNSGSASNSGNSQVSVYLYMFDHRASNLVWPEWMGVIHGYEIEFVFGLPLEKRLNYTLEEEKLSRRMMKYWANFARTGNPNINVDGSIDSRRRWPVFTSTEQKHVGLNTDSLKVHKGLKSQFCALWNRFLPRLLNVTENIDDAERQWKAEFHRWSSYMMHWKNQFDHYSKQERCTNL
Description: as §2

In general, IC50 refers to the concentration at which inhibition is half-maximal. Read a low IC50 as greater potency in that assay.

Activity calls are given as the source filed them. The rule behind the calls is not given here.

Sequence of Acetylcholinesterase (Electrophorus electricus, UniProt O42275) (O42275 whole entry): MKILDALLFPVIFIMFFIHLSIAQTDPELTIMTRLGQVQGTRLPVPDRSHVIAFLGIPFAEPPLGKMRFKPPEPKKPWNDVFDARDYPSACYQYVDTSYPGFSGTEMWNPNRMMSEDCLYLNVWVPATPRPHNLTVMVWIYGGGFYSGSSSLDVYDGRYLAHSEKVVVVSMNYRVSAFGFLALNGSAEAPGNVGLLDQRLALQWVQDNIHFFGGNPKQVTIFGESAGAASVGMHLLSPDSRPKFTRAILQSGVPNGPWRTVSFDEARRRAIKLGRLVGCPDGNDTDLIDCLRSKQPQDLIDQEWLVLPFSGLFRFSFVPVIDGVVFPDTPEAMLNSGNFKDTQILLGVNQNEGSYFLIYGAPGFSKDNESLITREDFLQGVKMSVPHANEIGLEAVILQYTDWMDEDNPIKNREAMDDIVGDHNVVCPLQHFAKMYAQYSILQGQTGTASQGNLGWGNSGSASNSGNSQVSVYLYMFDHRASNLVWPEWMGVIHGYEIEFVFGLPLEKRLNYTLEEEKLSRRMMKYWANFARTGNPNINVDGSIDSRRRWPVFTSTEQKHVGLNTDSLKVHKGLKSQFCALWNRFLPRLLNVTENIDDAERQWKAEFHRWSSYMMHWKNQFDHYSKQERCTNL
T1 sequence (P22303 whole entry): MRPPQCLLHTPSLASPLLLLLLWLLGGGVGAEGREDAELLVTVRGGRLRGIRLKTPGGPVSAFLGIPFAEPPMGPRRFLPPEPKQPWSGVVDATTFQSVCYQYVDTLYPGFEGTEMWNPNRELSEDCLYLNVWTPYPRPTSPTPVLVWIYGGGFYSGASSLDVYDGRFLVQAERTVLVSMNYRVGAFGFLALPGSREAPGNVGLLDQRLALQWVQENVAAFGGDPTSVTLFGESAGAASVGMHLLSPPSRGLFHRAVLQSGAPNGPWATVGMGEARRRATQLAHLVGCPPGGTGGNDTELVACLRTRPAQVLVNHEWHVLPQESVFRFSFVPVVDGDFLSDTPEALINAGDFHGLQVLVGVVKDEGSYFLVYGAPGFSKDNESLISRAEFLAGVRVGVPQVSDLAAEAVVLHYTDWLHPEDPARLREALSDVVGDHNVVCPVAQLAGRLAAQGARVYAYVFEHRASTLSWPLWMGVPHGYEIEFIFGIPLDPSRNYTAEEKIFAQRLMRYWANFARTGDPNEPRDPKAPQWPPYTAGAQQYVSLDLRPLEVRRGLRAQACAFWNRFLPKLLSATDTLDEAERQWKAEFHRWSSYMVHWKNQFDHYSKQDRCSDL

Consider `COc1cc(CCCOC(=O)NC(C)(C)C)cc2cc(-c3ccc4c(c3)OCO4)oc12`, for which the inhibition result in experiment [1] is “inactive”.

For the compound `COc1cc(CCCOC(=O)Nc2ccccc2)cc2cc(-c3ccc4c(c3)OCO4)oc12`, the half-inhibitory concentration (IC50) in experiment [2] turned out to be 4500 nM; in experiment [3] it was 3300 nM. Besides, the inhibition result in experiment [1] was “inactive”.

`CC[C@H](C)C(=O)OCCCc1ccc2oc(-c3ccc4c(c3)OCO4)cc2c1`: the figures for the IC50 in experiment [2] and in experiment [3] were 6100 nM and 5500 nM, respectively. Further, the inhibition result in experiment [1] is “inactive”.

For the compound `COc1cc(CCCOC(=O)CCCCCCCC=O)cc2cc(-c3ccc4c(c3)OCO4)oc12`, the inhibition entry in experiment [4] and in experiment [1] was “inactive” each time.

Regarding `COc1cc(CCCOC(=O)C(C)C)cc2cc(-c3ccc4c(c3)OCO4)oc12`, the inhibition entry in experiment [1] is “inactive”.

For `COc1cc(CCC=O)cc2cc(-c3ccc4c(c3)OCO4)oc12`, the inhibition entry in experiment [4], in experiment [1] and in experiment [5] was “inactive” in each case.

As to `COc1cc(CCCOC(C)=O)cc2cc(-c3ccc4c(c3)OCO4)oc12`, the inhibition entry in experiment [4], in experiment [1] and in experiment [5] was “inactive” throughout.

As to `CC[C@H](C)C(=O)OCCCc1cc(OC)c2oc(-c3ccc4c(c3)OCO4)cc2c1`, the half-inhibitory concentration (IC50) was found to be 5900 nM in experiment [2] and 4800 nM in experiment [3]. For the same compound, in experiment [1], the inhibition result is “inactive”.

For `CC(=O)OCCCc1ccc2oc(-c3ccc4c(c3)OCO4)cc2c1`, the inhibition entry in experiment [4], in experiment [1] and in experiment [5] was “inactive” in each case.

As to `O=CCCCCCCCC(=O)OCCCc1ccc2oc(-c3ccc4c(c3)OCO4)cc2c1`, the inhibition entry in experiment [4] and in experiment [1] was “inactive” throughout.

As for `CCCC(=O)OCCCc1cc(OC)c2oc(-c3ccc4c(c3)OCO4)cc2c1`, the inhibition result in experiment [1] was “inactive”.

Regarding `OCCCc1ccc2oc(-c3ccc4c(c3)OCO4)cc2c1`, the inhibition result in experiment [4], in experiment [1] and in experiment [5] was “inactive” in each case.

Take `CCCCC/C=C\C/C=C\CCCCCCCC(=O)OCCCc1ccc2oc(-c3ccc4c(c3)OCO4)cc2c1`: the results for the IC50 in experiment [2] and in experiment [3] were 2700 nM and 2000 nM, respectively. For the same compound, the inhibition entry in experiment [1] was “inactive”.

As for `CCCCCCCC/C=C\CCCCCCCC(=O)OCCCc1cc(OC)c2oc(-c3ccc4c(c3)OCO4)cc2c1` [EGONOL OLEATE], the concentration for half-maximal inhibition (IC50) in experiment [2] is 1800 nM; in experiment [3], 1400 nM. In addition, the inhibition result in experiment [1] is “inactive”.

As for `CCC(=O)OCCCc1cc(OC)c2oc(-c3ccc4c(c3)OCO4)cc2c1`, the inhibition entry in experiment [4], in experiment [1] and in experiment [5] was “inactive” each time.

`COc1cc(CCC(=O)O)cc2cc(-c3ccc4c(c3)OCO4)oc12`: the inhibition entry in experiment [4], in experiment [1] and in experiment [5] was “inactive” each time.

Take `CCCCCCCC/C=C\CCCCCCCC(=O)OCCCc1ccc2oc(-c3ccc4c(c3)OCO4)cc2c1`: the results for the IC50 in experiment [2] and in experiment [3] were 3100 nM and 2200 nM, respectively. For the same compound, the inhibition result in experiment [1] is “inactive”.

On to `CCCCC/C=C\C/C=C\CCCCCCCC(=O)OCCCc1cc(OC)c2oc(-c3ccc4c(c3)OCO4)cc2c1`, for which the figures for the half-maximal inhibitory concentration (IC50) in experiment [2] and in experiment [3] were 1700 nM and 1400 nM, respectively. Also, in experiment [1], the inhibition result was “inactive”.

In the case of `COc1cc(CCCO)cc2cc(-c3ccc4c(c3)OCO4)oc12`, the inhibition result in experiment [4], in experiment [1] and in experiment [5] was “inactive” each time.

For the origin of these results see ChEMBL document CHEMBL1833820, “Benzofurans from Styrax agrestis as acetylcholinesterase inhibitors: structure-activity relationships and molecular modeling studies” (J Nat Prod, 2011).
